Results taken from US4695569A, “Bicyclic heterocyclyl containing N-(bicyclic heterocyclyl)-4-piperidinamines” (Janssen Pharmaceutica N.V., priority 1987, dated 1987).
Structures can show the parent of a compound that is named as a salt. Where two headings read alike, the source gives them in different places.

Legend:
[1] = system: compound 48/80-induced lethality; experiment: Protection of rats from compound 48/80-induced lethality; format: in vivo, rat (male, inbred Wistar strain); conditions: Rattus norvegicus, 4 h, read-out: Compound 48/80 lethality test in rats-ED50
Method: Protection of rats from compound 48/80-induced lethality
The protection from compound 48/80-induced lethal circulatory collapse appears to be a simple way of evaluating quantitatively the antihistaminic activity of test compounds. Male rats of an inbred Wistar strain, weighing 240-260 g were used in the experiment. After overnight starvation the rats were transferred to conditioned laboratories (temp.=21±1° C., relative humidity=65±5%).
The rats were treated subcutaneously or orally with a test compound or with the solvent (NaCl solution, 0.9%). […] Survival after 4 hours is therefore considered to be a safe criterion of a protective effect of drug administration.
The ED50 -values of the compounds of formula (I) are listed in the first column of table 1. Said ED50 -values are the values in mg/kg body weight at which the tested compounds protect 50% of the tested animals against compound 48/80-induced lethality.

serotonin = experiment: Antagonistic activity on the effects of serotonin in the gastric lesion test (lesions induced by compound 48/80); format: in vivo, rat (male, Wistar inbred strain)
Excerpt: The compounds of formula (I) and the pharmaceutically acceptable acid addition salts thereof are also potent serotonin-antagonists. The potency of the subject compounds as serotonin-antagonists is clearly evidenced by the results obtained in the following tests wherein the antagonistic activity of the subject compounds on the effect of serotonin is examined.
Antagonistic activity on the effects of serotonin in the gastric lesion test
Comound 48/80 (a mixture of oligomers obtained by condensation of 4-methoxy-N-methylbenzeneethanamine and formaldehyde) is a potent releaser of vasoactive amines from endogenous stores such as, for example, histamine and serotonin. […] The shock, followed by dead, can be avoided if the rats are pretreated with a classical H 1 antagonist.
Male rats of a Wistar inbred strain, weighing 220-250 g, were starved overnight, water being available ad libitum. The test compounds were administered orally as a solution or as a suspension in aqueous medium. A control rat and a "blank" rat received the test compound. One hour later 5-[4-(diphenylmethyl)-1-piperazinylmethyl]-1-methyl-1H-benzimidazole-2-methanol was administered subcutaneously to all rats at the dose of 2.5 mg/kg.
Four hours after the intravenous injection of compound 48/80, the rats were decapitated and the stomachs were removed. Subsequently the stomachs ere inspected for distension and contents (blood, fluid, food) and thoroughly rinsed. The macroscopic lesions were scored from 0 to +++, 0 corresponding to complete absence of visible lesions and the highest score corresponding to reddish rough patches covering more than half the glandular area.

[2] = Rattus norvegicus, po, 4 h; read-out: gastric lesion test ED50 (distension of the stomach and lesions in the glandular area completely absent in 50% of rats)
[3] = Rattus norvegicus, po, 4 h, read-out: gastric lesion test ED50 (distension of the stomach and lesions in the glandular area completely absent in 50% of rats)

| Compound | ED50 [1] [mg/kg] | ED50 (serotonin; [2]) [mg/kg] | ED50 (serotonin; [3]) [mg/kg] |
| --- | --- | --- | --- |
| O=c1[nH]c2ccccc2c(=O)n1CCN1CCC(Nc2nc3ccccc3n2Cc2ccco2)CC1 [Compound 24] | 0.08 | 0.63 | – |
| Cc1nc2sccn2c(=O)c1CCN1CCC(Nc2nc3cccnc3n2Cc2ccco2)CC1 [Compound 28] | 0.04 | – | 0.16 |
| Cc1nc2sccn2c(=O)c1CCN1CCC(Nc2nc3ccccc3n2Cc2ccco2)CC1 [Compound 31] | 0.04 | 0.02 | – |
| Cn1c(=O)n(CCN2CCC(Nc3nc4ccccc4n3Cc3ccco3)CC2)c(=O)c2ccccc21 [Compound 34] | 0.08 | 0.16 | – |
| Cn1c(=O)c2c(ncn2CCN2CCC(Nc3nc4ccccc4n3Cc3ccco3)CC2)n(C)c1=O [Compound 39] | 0.16 | 0.63 | – |
| Fc1ccc(Cn2c(NC3CCN(Cc4cn5cccnc5n4)CC3)nc3ccccc32)cc1 [Compound 40] | 0.16 | – | 0.16 |
| Fc1ccc(Cn2c(NC3CCN(Cc4cn5ccccc5n4)CC3)nc3ccccc32)cc1 [Compound 41] | 0.16 | 0.63 | – |
| Fc1ccc(Cn2c(NC3CCN(Cc4cn5ccncc5n4)CC3)nc3ccccc32)cc1 [Compound 49] | 0.16 | 0.63 | – |
| Cc1nc2ccccn2c(=O)c1CCN1CCC(Nc2nc3ccccc3n2Cc2cccs2)CC1 [Compound 52] | 0.31 | – | 1.25 |
| Cc1nc2ccccn2c(=O)c1CCN1CCC(Nc2nc3cccnc3n2Cc2ccccn2)CC1 [Compound 55] | 0.08 | 0.16 | – |
| Cc1nc2n(c(=O)c1CCN1CCC(Nc3nc4cccnc4n3Cc3ccco3)CC1)CC(C)CC2 (centres unmarked) [Compound 58] | 0.04 | 0.63 | – |
| Cc1nc2n(c(=O)c1CCN1CCC(Nc3nc4ccccc4n3Cc3cccs3)CC1)CCCC2 [Compound 59] | 0.08 | 0.31 | – |
| Cc1nc2n(c(=O)c1CCN1CCC(Nc3nc4cccnc4n3Cc3ccc(F)cc3)CC1)CCCC2 [Compound 61] | 0.04 | 0.31 | – |
| Cc1nc2n(c(=O)c1CCN1CCC(Nc3nc4ccccc4n3Cc3cscn3)CC1)CCCC2 [Compound 62] | 0.04 | – | 0.63 |
| Cc1nc2n(c(=O)c1CCN1CCC(Nc3nc4cccnc4n3Cc3ccco3)CC1)C(C)CC(C)C2 (centres unmarked) [Compound 63] | 0.08 | 0.63 | – |
| Cc1nc2ccccn2c(=O)c1CCN1CCC(Nc2nc3cc(F)c(F)cc3n2Cc2ccc(F)cc2)CC1 [Compound 70] | 0.31 | 0.63 | – |
| Cc1ccn2c(=O)c(CCN3CCC(Nc4nc5cccnc5n4Cc4ccco4)CC3)c(C)nc2c1 [Compound 74] | 0.04 | 0.16 | – |
| Cc1cc(C)n2c(=O)c(CCN3CCC(Nc4nc5cccnc5n4Cc4ccco4)CC3)c(C)nc2c1 [Compound 77] | 0.16 | 0.31 | – |
| OCCn1cnc2c(NCCN3CCC(Nc4nc5ccccc5n4Cc4ccc(F)cc4)CC3)ncnc21 [Compound 93, 6-[[2-[4-[[1-[(4-fluorophenyl)methyl]-1H-benzimidazol-2-yl]amino]-1-piperidinyl]ethyl]amino]-9H-purine-9-ethanol] | 0.08 | 0.16 | – |
| Cn1cnc2c(NCCN3CCC(Nc4nc5ccccc5n4Cc4ccc(F)cc4)CC3)ncnc21 [Compound 94] | 0.31 | 0.63 | – |

| Compound | ED50 [1] [mg/kg] | ED50 (serotonin; [2]) [mg/kg] | ED50 (serotonin; [3]) [mg/kg] |
| --- | --- | --- | --- |
| Fc1ccc(Cn2c(NC3CCN(CCNc4ncnc5c4ncn5Cc4ccccc4)CC3)nc3ccccc32)cc1 [Compound 95] | 0.16 | 0.63 | – |
| Fc1ccc(Cn2c(NC3CCN(CCNc4ncnc5[nH]cnc45)CC3)nc3ccccc32)cc1 [Compound 97] | 0.08 | 0.04 | – |
| Fc1ccc(Cn2c(NC3CCN(CCNc4nc5cccnc5s4)CC3)nc3ccccc32)cc1 [Compound 103, N-[2-[4-[[1-[(4-fluorophenyl)methyl]-1H-benzimidazol-2-yl]amino]-1-piperidinyl]ethyl]thiazolo[5,4-b]pyridin-2-amine] | 0.16 | 0.63 | – |
| Fc1ccc(Cn2c(NC3CCN(CCNc4nc5cnccc5s4)CC3)nc3ccccc32)cc1 [Compound 104, N-[2-[4-[[1-[(4-fluorophenyl)methyl]-1H-benzimidazol-2-yl]amino]-1-piperidinyl]ethyl]thiazolo[4,5-c]pyridin-2-amine] | 0.16 | 0.31 | – |
| Cn1c(NCCN2CCC(Nc3nc4ccccc4n3Cc3ccc(F)cc3)CC2)nc2cnccc21.O [Compound 108, N-[2-[4-[[1-[(4-fluorophenyl)methyl]-1H-benzimidazol-2-yl]amino]-1-piperidinyl]ethyl]-1-methyl-1H-imidazo[4,5-c]pyridin-2-amine monohydrate] | 0.04 | 0.16 | – |
| Fc1ccc(Cn2c(NC3CCN(CCNc4nc5cnccc5[nH]4)CC3)nc3ccccc32)cc1 [Compound 109] | 0.04 | 0.04 | – |
| Fc1ccc(Cn2c(NC3CCN(CCNc4nc5ncccc5[nH]4)CC3)nc3ccccc32)cc1 [Compound 110] | 0.16 | 0.31 | – |
| c1coc(Cn2c(NC3CCN(CCNc4nc5cnccc5[nH]4)CC3)nc3ccccc32)c1 [Compound 111] | 0.02 | 0.08 | – |
| Fc1ccc(Cn2c(NC3CCN(CCNc4nc5cnccc5[nH]4)CC3)nc3ncccc32)cc1 [Compound 112] | 0.02 | 0.16 | – |
| Fc1ccc(Cn2c(NC3CCN(CCNc4nc5cnccc5[nH]4)CC3)nc3cccnc32)cc1 [Compound 114] | 0.02 | 0.63 | – |
| c1ccc(Cn2c(NC3CCN(CCNc4nc5cnccc5[nH]4)CC3)nc3ccccc32)nc1 [Compound 115] | 0.02 | – | 0.16 |
| c1csc(Cn2c(NC3CCN(CCNc4nc5cnccc5[nH]4)CC3)nc3ccccc32)c1 [Compound 117] | 0.02 | 0.31 | – |
| c1coc(Cn2c(NC3CCN(CCNc4nc5cnccc5[nH]4)CC3)nc3cccnc32)c1 [Compound 119] | 0.04 | 0.63 | – |
| Fc1ccc(Cn2c(NC3CCN(CCCCNc4nc5cnccc5[nH]4)CC3)nc3ccccc32)cc1 [Compound 121, N-[4-[4-[[1-[(4-fluorophenyl)methyl]-1H-benzimidazol-2-yl]amino]-1-piperidinyl]butyl]-1H-imidazo[4,5-c]pyridin-2-amine] | 0.02 | 0.02 | – |
| Fc1ccc(Cn2c(NC3CCN(CCCNc4nc5cnccc5[nH]4)CC3)nc3ccccc32)cc1 [Compound 122, N-[3-[4-[[1-[(4-fluorophenyl)methyl]-1H-benzimidazol-2-yl]amino]-1-piperidinyl]propyl]-1H-imidazo[4,5-c]pyridin-2-amine ethanedioate(2:7)] | 0.02 | 0.63 | – |
| Cn1c(=S)n(CCN2CCC(Nc3nc4ccccc4n3Cc3ccco3)CC2)c(=O)c2ccccc21 [Compound 129, 3-[2-[4-[[1-(2-furanylmethyl)-1H-benzimidazol-2-yl]amino]-1-piperidinyl]ethyl]-2,3-dihydro-1-methyl-2-thioxo-4(1H)-quinazolinone] | 0.08 | 0.31 | – |
| Fc1ccc(Cn2c(NC3CCN(CCn4c(=S)[nH]c5ccccc54)CC3)nc3ccccc32)cc1 [Compound 142, 1-[2-[4-[[1-[(4-fluorophenyl)methyl]-1H-benzimidazole-2-yl]amino]-1-piperidinyl]ethyl]-1,3-dihydro-2H-benzimidazole-2-thione] | 0.16 | 0.63 | – |
| Fc1ccc(Cn2c(NC3CCN(CCn4c(=S)[nH]c5cncnc54)CC3)nc3ccccc32)cc1 [Compound 143, 9-[2-[4-[[1-[(4-fluorophenyl)methyl]-1H-benzimidazol-2-yl]amino]-1-piperidinyl]ethyl]-7,9-dihydro-8H-purine-8-thione trihydrochloride.dihydrate] | 0.31 | 0.63 | – |
| Cc1nc2nc(NCCN3CCC(Nc4nc5ccccc5n4Cc4ccc(F)cc4)CC3)ccc2[nH]1 [Compound 146, N-[2-[4-[[1-[(4-fluorophenyl)methyl]-1H-benzimidazol-2-yl]amino]-1-piperidinyl]ethyl]-2-methyl-1H-imidazo[4,5-b]pyridin-5-amine] | 0.04 | 0.08 | – |
| CCOC(=O)N1CCc2nc(NCCN3CCC(Nc4nc5ccccc5n4Cc4ccc(F)cc4)CC3)sc2C1 [Compound 147, ethyl 2-[[2-[4-[[1-[4-fluorophenyl)methyl]-1H-benzimidazol-2-yl]amino]-1-piperidinyl]ethyl]amino]-4,5-dihydro-thiazolo[4,5-d]pyridine-6(7H)-carboxylate (E)-2-butenedioate (1:2) monohydrate] | 0.31 | 0.63 | – |
